Where two headings read alike, the source gives them in different places.
What was measured:
[1] = system: neointima formation; conditions: rats; cited from earlier work
[2] = water solubility; assay type: physicochemical; conditions: for solubility at 14 h: thermodynamic from solid
Source text: The other isethionate salt forms were not evaluated for metastable solubility. […] See Table 5 for a list of HPLC conditions.

[3] = pKa of conjugate acid; assay type: physicochemical
Source text: The free base (Formula 1) is a dibasic compound, which may form both mono- and di-acid addition salts. Its conjugate acid has pKas of 7.3 and 4.1, so comparatively strong acids are necessary for generating the di-salt. Though it may be possible to form a di-isethionate salt of the compound of Formula 1, the mono-isethionate salt appears to be more useful since it requires less counter ion.

[4] = bioavailability in animal studies; assay type: in vivo
Source text: . However, moisture uptake studies reveal that, even at low relative humidity (10% RH), the di-HCl salt absorbs water in an amount greater than about 2% of its mass, making it unsuitable for use in a solid drug product. […]. However, the process for preparing the mono-HCl salt yields partially crystalline drug substance, indicating potential problems with process scale-up. Other salt forms of the compound of Formula 1 are thus needed.

Compound: COc1ccc(CNc2nc(N(CCO)CCO)nc3c2ncn3C(C)C)cc1 [CVT-313]
- inhibition of neointima formation [1]: greater than 80%

Compound: CC(=O)c1c(C)c2cnc(Nc3ccc(N4CCNCC4)cn3)nc2n(C2CCCC2)c1=O [Formula 1, 6-acetyl-8-cyclopentyl-5-methyl-2-(5-piperazin-1-yl-pyridin-2-ylamino)-8H-pyrido[2,3-d]pyrimidin-7-one]
- Solubility mgA/mL ([2]; free base final pH 7.9, 14 h equilibration): 0.009 mgA/mL
- solubility at 14 h ([2]; pH 7.9, water, read-out: free base solubility): 9.2 µg/mL
- solubility at 14 h ([2]; read-out: water solubility): 9 µg/mL
- pKa ([3]; read-out: pKa of conjugate acid (first)): 7.3
- pKa ([3]; read-out: pKa of conjugate acid (second)): 4.1
- bioavailability in animal studies [4]: low bioavailability

Compound: CC(=O)c1c(C)c2cnc(Nc3ccc(N4CCNCC4)cn3)nc2n(C2CCCC2)c1=O.Cl.Cl [di-HCl salt]
- water solubility (in words) [2]: adequate water solubility

— patent publication US7863278B2, “Isethionate salt of a selective CDK4 inhibitor” (Warner-Lambert CompanyLLC, priority 2003, dated 2011)
